Positions of bridges follow the written chain, without caps; N, C: chain ends. Non-standard residues stand in square brackets, D forms with d. Residues, ends and D or L forms follow the SMILES beside them. Phe(4-NO2) = N[C@@H](Cc1ccc([N+](=O)[O-])cc1)C(=O)O; 2Nal = N[C@@H](Cc1ccc2ccccc2c1)C(=O)O
Columns and labels:
[1] = target: T1, SSTR2 (Rattus norvegicus, UniProt P30680); test: Cyclic AMP accumulation, forskalin stimulated, intact cells; format: cell-based; details: read-out: SSTR^2 % IA (% intrinsic activity)
Description: Cyclic AMP accumulation assays are used to determine the functional coupling of somatostatin receptors to effectors. All five cloned somatostatin receptors inhibit cyclic AMP accumulation and adenylyl cyclone activity.^1,2,3,4,5 This evaluation measures cyclic AMP accumulation from intact cells using the adrenal binding protein method. Signal transduction by somatostatin is mediated by lowering intracellular c-AMP levels. This functional assay measures the ability of the test compound to inhibit the effect of somatostatin on forskalin stimulated c-AMP levels.
Bovine adrenal gland extracts are prepared according to the method of Brown et al^6 with minor modifications. […]
Somatostatin-mediated inhibition of cyclic AMP accumulation is measured in intact cells co-incubated with the diterpene forskalin (5 μM) which activates adenylyl cyclase directly and stimulates cyclic AMP accumulation in cells. […] The cells are counted and the concentration of cells is adjusted to 50,000/70 μl and incubated 15 minutes at room temperature before starting the assay. […]

[2] = target: T2, rat somatostatin receptor subtype 2 (SSTR2) (Rattus norvegicus, UniProt P30680); test: Yeast assay, somatostatin antagonist activity (zone of no growth in presence of S-14); format: cell-based; design: key: 1 is minimum antagonist activity; 5 is maximum antagonist activity; --: When no activity is observed, the result is indicated by a dash; details: rating on a scale of 1-5 from zone of no growth; 5 μL of 1 mg/mL S-14 added to each plate
T2 construct: expressed in transfected cells; host or cells: Saccharomyces cerevisiae LY364 bearing pJH2 (SSTR2) and pLP82 (G protein)
Description: (§1) In this evaluation, yeast cells which have been specifically modified to functionally express rat somatostatin receptor subtype 2 (SSTR2) on their cell surfaces are used. S. Cerevisiae LY364 cells are plated in a standard synthetic agar medium which lacks histidine. In the absence of a somatostatin receptor agonist, the auxotrophic (his3) cells are unable to grow. In the presence of somatostatin, or a somatostatin agonist, the expression of an enzyme (His3p: imidazole-glycerol phosphate dehydratase) which is essential for histidine biosynthesis is induced. The cells become competent to produce histidine, resulting in a zone of growing cells around the applied test compound. The zone is measured and the test compound is given an agonist rating on a scale of 1-5 wherein 1 is minimum agonist activity and 5 is maximum agonist activity.
To evaluate the somatostatin antagonist activity of a test compound, the above procedure is followed except on day 3, 5 μL of 1 mg/mL of somatostatin, S-14, is added to each plate, before applying the test compound. If the test compound is an antagonist of somatostatin, then a zone of no growth will appear within the cell growth zone. This zone of no growth is measured and the test compound is given an antagonist rating on a scale of 1-5 wherein 1 is minimum antagonist activity and 5 is maximum antagonist activity.
The results are shown in Table I. When no activity is observed, the result is indicated by a dash.
On day 3, add 5 μL 1 mg/mL S-14 to each plate.
(§2) Day 7. Growth in response to somatostatin should be readily observable. Rate extent of growth or inhibition of growth according to rating scale described hereinabove.

[3] = target: T2, rat somatostatin receptor subtype 2 (SSTR2); test: Yeast assay, somatostatin agonist activity (zone of growth of modified yeast cells); format: cell-based; design: key: 1 is minimum agonist activity; 5 is maximum agonist activity; --: When no activity is observed, the result is indicated by a dash; details: rating on a scale of 1-5 from zone of growth; S. cerevisiae LY364 expressing rat SSTR2
Description: as §1
1) Inoculate 2 mL SCD-ura-trp liquid medium in Falcon 2051 tube with a single colony taken from a plate containing LY364 (MATa ura3-52 leu2 his3 trp1 lys2 ade2 far1:: LYS2 fus1:: FUS1-HIS3 gpa1::hisG sst2::.ADE2 bearing the SSTR2 expression plasmid, pJH2, and the G protein expression plasmid, pLP82) cells.
3) Add 1 mL of LY364 culture to 1 liter of agar medium.
8) Incubate plates at 30° C.
Day 5. Begin checking plates for growth around applied compounds.
as §2

[4] = target: T1, SSTR2; test: Competitive binding, displacement of [125I]Tyr11 S-14; design: expressed in transfected cells; membrane protein
Description: In this evaluation the concentration of test compound required to displace 50% of somatostatin, SRIF, from the SRIF receptor subtypes expressed in mammalian cells is measured, i.e., the concentration required to inhibit 50% of [^125 I] Tyr^11 S-14 (Amersham) (IC50) from binding to the SRIF receptor subtypes.
Radiolabeled SRIF is mixed with pituitary cells, the test compound is added, the mixture is incubated and the radioactivity is measured as compared to control. Reduced radioactivity indicates successful competitive binding of the test compound to the pituitary cell receptor. The concentration of the test compound in nanomolar units required to displace 50% of SRIF from the pituitary cell receptor is calculated and reported in Table II as the IC50 value. Also calculated is the inhibitory constant, Ki.
Tyr^11 S-14 (150,000 cpm at 2000 Ci/mmole, 250 pM final concentration). The binding reaction is initiated by adding 2-60 μg of membrane protein in a 170 μL volume. Final reaction volume is 200 μl/well. All incubations are carried out at room temperature for 2 hours. Free radioligand is separated from bound ligand by rapid filtration through a glass fiber filter (IH-201-HA) using an Inotech cell harvester. The filter is then washed several times with cold (4° C.) binding buffer lacking BSA and protease inhibitors prior to counting in an LKB gamma master counter (78% efficiency). Whatman GFC filters presoaked in 0.3% polyethylenimine (to decrease background) are used.
The IC50 values and Ki values are calculated using the well-known methods described by Y. Cheng and W. H. Prusoff, Biochem. Pharmacol. 22, 3099-3108 (1973), incorporated herein by reference thereto.

T2 sequence (P30680 whole entry): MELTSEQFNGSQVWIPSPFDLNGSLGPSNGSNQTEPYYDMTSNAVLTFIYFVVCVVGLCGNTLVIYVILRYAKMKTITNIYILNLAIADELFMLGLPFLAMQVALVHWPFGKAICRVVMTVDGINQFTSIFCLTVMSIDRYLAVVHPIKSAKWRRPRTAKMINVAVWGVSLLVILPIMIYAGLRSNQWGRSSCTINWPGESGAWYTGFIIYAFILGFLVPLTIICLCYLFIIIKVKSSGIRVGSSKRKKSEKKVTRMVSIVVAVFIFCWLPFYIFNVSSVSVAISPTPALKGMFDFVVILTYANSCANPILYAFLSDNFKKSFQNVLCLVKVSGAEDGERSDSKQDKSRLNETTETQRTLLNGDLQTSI
T1 sequence (P30680 whole entry): as above

Row | Emax [1] | Yeast Assay Antagonist [2] | Yeast Assay Agonist [3] | Ki ([4]; calculated by method of Cheng and Prusoff, read-out: SSTR2 Binding Affinity Ki) | IC50 ([4]; displacement of [125I]Tyr11 S-14, 250 pM, room temperature, 2 hours, read-out: SSTR2 Binding Affinity IC50) | SMILES
1 | 7% | 3 | -- |  |  | NCCCC[C@@H]1NC(=O)[C@@H](Cc2c[nH]c3ccccc23)NC(=O)[C@H](Cc2ccc(O)cc2)NC(=O)[C@H](NC(=O)[C@@H](N)Cc2ccc([N+](=O)[O-])cc2)CSSC[C@@H](C(=O)N[C@@H](Cc2ccc3ccccc3c2)C(N)=O)NC(=O)[C@H](CO)NC1=O [4-NO2 Phe Tyr Lys Ser Nal(2)] (H-[Phe(4-NO2)][dC]Y[dW]KSC[2Nal]-NH2; disulfide 2-7 (inferred); N-terminus and C-terminus assumed)
2 |  | 1 | -- | 0.48 nM | 1 nM | CC(=O)N[C@@H](Cc1ccc2ccccc2c1)C(=O)N[C@@H]1CSSC[C@@H](C(=O)N[C@@H](Cc2ccc(O)cc2)C(N)=O)NC(=O)[C@H]([C@@H](C)O)NC(=O)[C@H](CCCCN)NC(=O)[C@@H](Cc2c[nH]c3ccccc23)NC(=O)[C@H](Cc2ccc(O)cc2)NC1=O [Ac-Nal(2) Tyr Lys Thr Tyr] (Ac-[2Nal][dC]Y[dW]KTCY-NH2; disulfide 2-7 (inferred); N-terminus and C-terminus assumed)
3 | -12% | 5 | -- |  |  | C[C@@H](O)[C@@H]1NC(=O)[C@H](CCCCN)NC(=O)[C@@H](Cc2c[nH]c3ccccc23)NC(=O)[C@H](Cc2ccc(O)cc2)NC(=O)[C@H](NC(=O)[C@@H](N)Cc2ccc(I)cc2)CSSC[C@@H](C(=O)N[C@@H](Cc2ccc(O)cc2)C(N)=O)NC1=O [4-IPhe Tyr Lys Thr Tyr]
